According to ChEMBL document CHEMBL3808365, “Potent and Selective CK2 Kinase Inhibitors with Effects on Wnt Pathway Signaling in Vivo” (ACS Med Chem Lett, 2016):
≈ marks a conversion by molar mass, not a printed value.

Experiments:
[1] = biological target: Casein kinase II subunit alpha (Homo sapiens, UniProt P68400); test: Inhibition of full length N-terminal 6xHis-tagged recombinant human CK2alpha expressed in fall armyworm Sf21 cells using BODIPY-FL-RRRDDDSDDD-CONH2 as substrate after 90 mins by mobility shift assay
Sequence of Casein kinase II subunit alpha (P68400 whole entry): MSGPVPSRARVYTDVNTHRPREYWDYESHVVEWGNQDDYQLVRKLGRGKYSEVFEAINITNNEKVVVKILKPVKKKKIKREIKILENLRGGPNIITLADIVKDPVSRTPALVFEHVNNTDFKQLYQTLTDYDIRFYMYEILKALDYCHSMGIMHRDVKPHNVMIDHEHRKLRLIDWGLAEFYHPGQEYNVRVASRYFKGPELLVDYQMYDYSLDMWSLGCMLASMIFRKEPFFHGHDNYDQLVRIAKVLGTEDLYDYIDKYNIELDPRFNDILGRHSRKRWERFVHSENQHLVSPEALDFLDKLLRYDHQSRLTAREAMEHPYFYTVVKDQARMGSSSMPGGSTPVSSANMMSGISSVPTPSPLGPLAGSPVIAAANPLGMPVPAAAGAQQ

[2] = Fraction unbound in human plasma at 10 uM by equilibrium dialysis method; format: ADME, cell-free
[3] = Aqueous solubility of the compound in phosphate buffer at pH 7.4 incubated for 24 hrs by LC/MS/MS method; format: physicochemical
Casein kinase II = Casein kinase II (Homo sapiens, UniProt P19784+P67870+P68400); test: Inhibition of CK2 in human DLD1 HA-myr-AKT1 cells assessed as suppression of AKTser129 phosphorylation after 3 to 24 hrs by Western blot analysis
Sequence of Casein kinase II (P67870 whole entry): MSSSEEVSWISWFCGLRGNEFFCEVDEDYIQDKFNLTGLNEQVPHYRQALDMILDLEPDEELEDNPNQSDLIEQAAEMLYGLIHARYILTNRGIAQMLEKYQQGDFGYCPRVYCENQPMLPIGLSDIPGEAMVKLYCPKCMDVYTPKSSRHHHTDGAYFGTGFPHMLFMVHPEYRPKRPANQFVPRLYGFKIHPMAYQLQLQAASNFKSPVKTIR
Sequence of Casein kinase II (P68400 whole entry): as the sequence (P68400 whole entry) above
Sequence of Casein kinase II (P19784 whole entry): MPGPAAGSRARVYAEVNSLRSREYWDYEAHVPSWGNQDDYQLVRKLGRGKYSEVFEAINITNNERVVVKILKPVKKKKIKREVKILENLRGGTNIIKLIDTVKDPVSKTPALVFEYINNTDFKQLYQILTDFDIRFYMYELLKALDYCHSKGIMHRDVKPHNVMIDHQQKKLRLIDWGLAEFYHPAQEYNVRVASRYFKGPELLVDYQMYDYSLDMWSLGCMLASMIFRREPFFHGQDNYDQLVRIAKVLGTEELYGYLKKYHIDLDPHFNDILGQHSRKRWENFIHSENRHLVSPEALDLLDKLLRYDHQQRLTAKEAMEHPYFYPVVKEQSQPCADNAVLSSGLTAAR

[4] = Intrinsic clearance in rat hepatocyte assessed per 10^6 cells; format: ADME, cell-based; settings: hepatocytes, read-out: CLH
[5] = Intrinsic clearance in human liver microsomes; format: ADME; settings: read-out: CLH
[6] = Inhibition of CK2 in mouse L-Wnt3a cells assessed as suppression of Wnt3a-mediated L S/L Super TOPFlash reporter gene transcription after 24 hrs; settings: L Wnt-3A
[7] = Antiproliferative activity against human SW620 cells after 72 hrs by alamar blue assay; format: functional; settings: SW-620, 72 h
[8] = Antiproliferative activity against human […] cells after 72 hrs by alamar blue assay; format: functional; settings: HCT-116, 72 h

SMILES | IC50 [1] [nM] | fraction unbound at 10 µM [2] | solubility at 24 h [3] [µM] | IC50 (Casein kinase II) [nM] | hepatocyte CLint [4] [µL/min/1e6 cells] | microsomal CLint [5] [µL/min/mg] | IC50 [6] [nM] | GI50 [7] [nM] | GI50 [8] [nM]
CC(=O)Nc1cc(Nc2cc(NC3CC3)n3ncc(C#N)c3n2)ccc1N1CC[C@H](N)C1 | < 3 | 0.31 | 590 (≈ 255 µg/mL) | 70 | < 1 | < 3 | 690 |  | 
CC(=O)Nc1cccc(Nc2cc(NC3CC3)n3ncc(C#N)c3n2)c1 |  | 0.05 | 15 (≈ 5.21 µg/mL) |  | 26 | 20 | 600 | 700 | 700
CC(=O)Nc1cc(Nc2cc(NC3CC3)n3ncc(C#N)c3n2)ccc1N1CCC[C@H](N)C1 |  | 0.22 | 704 (≈ 314 µg/mL) |  | < 1 | < 3 | 180 |  | 
CC(=O)Nc1cc(Nc2cc(NC3CC3)n3ncc(C#N)c3n2)ccc1N(C)CCO | < 3 | 0.07 | 2 (≈ 0.841 µg/mL) |  | 17 | 21 |  |  | 
CC(=O)Nc1cc(Nc2cc(NC3CC3)n3ncc(C#N)c3n2)ccc1N1CC[C@H](N(C)C)C1 |  | 0.29 | > 800 |  | 2.5 | 9 | 380 |  | 
CCN(CCN)c1ccc(Nc2cc(NC3CC3)n3ncc(C#N)c3n2)cc1NC(C)=O | < 3 | 0.3 | > 1000 |  | 2 | 5 | 32 |  | 
CC(=O)Nc1cc(Nc2cc(NC3CC3)n3ncc(C#N)c3n2)ccc1N(C)CCN1CC(F)(F)C1 |  | 0.02 | 241 (≈ 119 µg/mL) |  |  |  | 760 |  | 
CC(=O)Nc1cc(Nc2cc(NC3CC3)n3ncc(C#N)c3n2)ccc1N1CCC[C@@H](N)C1 |  | 0.2 | > 1000 |  | < 1 | < 3 | 650 |  | 
CC(=O)Nc1cc(Nc2cc(NC3CC3)n3ncc(C#N)c3n2)ccc1N(C)C[C@H](C)N | < 3 | 0.36 | 895 (≈ 388 µg/mL) | 4 | < 1 | < 3 | 670 |  | 
